The subject of this experiment is BDF1 mice, L1210 leukemia sc, survival T/C. As to the kind of experiment: NCI In Vivo Anticancer Drug Screen. Data for tumor model L1210 Leukemia (subcutaneous) in B6D2F1 (BDF1) mice. To be noted: higher = longer survival. Summed up: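 Read-out: T/C ratio, i.e. survival or tumor size in treated mice over that in vehicle-treated controls, from mice bearing transplantable tumors.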

The mark [1] stands for this setting: endpoint: median survival time, dose: 3.0 mg/kg/injection, schedule: Q01DX Z (sc), vehicle: saline.
Where [2] appears, read: endpoint: median survival time, dose: 108.0 mg/kg/injection, schedule: Q01DX Z (sc), vehicle: methylcellulose (MC).
Setting [3] is: endpoint: median survival time, dose: 500.0 mg/kg/injection, schedule: Q01DX Z (sc), vehicle: methylcellulose (MC).
Where [4] appears, read: endpoint: median survival time, dose: 39.0 mg/kg/injection, schedule: Q01DX Z (sc), vehicle: methylcellulose (MC).
The mark [5] stands for this setting: endpoint: median survival time, dose: 65.0 mg/kg/injection, schedule: Q01DX Z (sc), vehicle: methylcellulose (MC).
Setting [6] is: endpoint: median survival time, dose: 180.0 mg/kg/injection, schedule: Q01DX Z (sc), vehicle: methylcellulose (MC).
Where [7] appears, read: endpoint: median survival time, dose: 300.0 mg/kg/injection, schedule: Q01DX Z (sc), vehicle: methylcellulose (MC).

Structures are written as SMILES. Values joined by “and” are separate entries in the source; they are usually repeats but may differ in a detail not shown here. Identical values can stand only once. Inconclusive results and toxic doses are left out.

Consider `CCCCN(CCCC)P(=O)(N1CC1)N1CC1`, for which the T/C runs as follows: (endpoint: median survival time, dose: 1.8 mg/kg/injection, schedule: Q01DX Z (sc), vehicle: saline) 110 % of control; under setting [1], 110 % of control.
For `CN(Cc1cnc2nc(N)nc(N)c2n1)c1c(Cl)cc(C(=O)NC(CCC(=O)O)C(=O)O)cc1Cl` (stereo not drawn), the T/C was 245 % of control (endpoint: median survival time, dose: 14.0 mg/kg/injection, schedule: Q01DX Z (sc), vehicle: sodium bicarbonate); 259 % of control (endpoint: median survival time, dose: 23.0 mg/kg/injection, schedule: Q01DX Z (sc), vehicle: sodium bicarbonate); 427 % of control (endpoint: median survival time, dose: 39.0 mg/kg/injection, schedule: Q01DX Z (sc), vehicle: sodium bicarbonate); 154 % of control (endpoint: median survival time, dose: 100.0 mg/kg/injection, schedule: Q01DX Z (sc), vehicle: other).
In the case of `CCc1nc(N)nc(N)c1-c1ccc(Cl)cc1`, the T/C under setting [2] is 118 % of control.
Take `CCCCSc1ncnc2nc[nH]c12`: the T/C runs as follows: (endpoint: median survival time, dose: 14.0 mg/kg/injection, schedule: Q01DX Z (sc), vehicle: methylcellulose (MC)) 90 % of control; (endpoint: median survival time, dose: 23.3 mg/kg/injection, schedule: Q01DX Z (sc), vehicle: methylcellulose (MC)) 100 % of control; (endpoint: median survival time, dose: 38.9 mg/kg/injection, schedule: Q01DX Z (sc), vehicle: methylcellulose (MC)) 104 % of control; under setting [3], 113 % of control; (endpoint: median survival time, dose: 833.0 mg/kg/injection, schedule: Q01DX Z (sc), vehicle: methylcellulose (MC)) 100 % of control.
Turning to `CS(=O)(=O)OCC(O)C(O)COS(C)(=O)=O` (stereo not drawn), the T/C (endpoint: median survival time, dose: 39.0 mg/kg/injection, schedule: Q01DX Z (sc), vehicle: saline) was 95 % of control; the T/C (endpoint: median survival time, dose: 65.0 mg/kg/injection, schedule: Q01DX Z (sc), vehicle: saline) was 91 % of control; the T/C (endpoint: median survival time, dose: 108.0 mg/kg/injection, schedule: Q01DX Z (sc), vehicle: saline) was 91 % of control; the T/C (endpoint: median survival time, dose: 180.0 mg/kg/injection, schedule: Q01DX Z (sc), vehicle: saline) is 91 % of control; the T/C (endpoint: median survival time, dose: 300.0 mg/kg/injection, schedule: Q01DX Z (sc), vehicle: saline) is 100 % of control.
For the molecule `Nc1ncc(N)c(N)n1`, the T/C by setting is: under setting [4], 100 % of control; (endpoint: median survival time, dose: 65.0 mg/kg/injection, schedule: Q01DX Z (sc), vehicle: carboxymethylcellulose (CMC)) 100 % of control; under setting [5], 100 % of control; (endpoint: median survival time, dose: 108.0 mg/kg/injection, schedule: Q01DX Z (sc), vehicle: carboxymethylcellulose (CMC)) 107 % of control; under setting [2], 100 % of control; (endpoint: median survival time, dose: 180.0 mg/kg/injection, schedule: Q01DX Z (sc), vehicle: carboxymethylcellulose (CMC)) 100 % of control. In addition, the T/C was 100 % of control under setting [6]; 100 % of control (endpoint: median survival time, dose: 300.0 mg/kg/injection, schedule: Q01DX Z (sc), vehicle: carboxymethylcellulose (CMC)); 100 % of control under setting [7]; 100 % of control (endpoint: median survival time, dose: 500.0 mg/kg/injection, schedule: Q01DX Z (sc), vehicle: carboxymethylcellulose (CMC)).
As to `C[n+]1c2ccccc2c(Nc2ccc(NS(=O)(=O)CCCCN=C(N)N)cc2)c2ccc(N)cc21`, the T/C runs as follows: (endpoint: median survival time, dose: 1.5 mg/kg/injection, schedule: Q01DX009 (ip), vehicle: water) 110 % of control; (endpoint: median survival time, dose: 3.0 mg/kg/injection, schedule: Q01DX009 (ip), vehicle: water) 120 % of control; (endpoint: median survival time, dose: 6.0 mg/kg/injection, schedule: Q01DX009 (ip), vehicle: water) 151 % of control; (endpoint: median survival time, dose: 12.0 mg/kg/injection, schedule: Q01DX009 (ip), vehicle: water) 173 % of control.
`CS(=O)(=O)OCC(=O)NCCNC(=O)COS(C)(=O)=O`: the T/C runs as follows: under setting [4], 105 % of control; under setting [5], 105 % of control; under setting [2], 110 % of control; under setting [6], 110 % of control; under setting [7], 115 % of control; under setting [3], 100 % of control.
On to `COc1cccc(/C=N/NC(N)=S)c1`, for which the T/C was 100 % of control (endpoint: median survival time, dose: 78.0 mg/kg/injection, schedule: Q01DX Z (sc), vehicle: water); 105 % of control (endpoint: median survival time, dose: 130.0 mg/kg/injection, schedule: Q01DX Z (sc), vehicle: water); 100 % of control (endpoint: median survival time, dose: 216.0 mg/kg/injection, schedule: Q01DX Z (sc), vehicle: water).
As to `CS(=O)(=O)Nc1ccc(Nc2c3ccccc3nc3cc([N+](=O)[O-])ccc23)cc1`, the T/C is, setting by setting: (endpoint: mean survival time, dose: 1.25 mg/kg/injection, schedule: Q01DX009 (ip), vehicle: Klucel (hydroxypropylcellulose) (HPC)) 108 % of control; (endpoint: mean survival time, dose: 1.25 mg/kg/injection, schedule: Q01DX009 (sc), vehicle: Klucel (hydroxypropylcellulose) (HPC)) 121 % of control; (endpoint: mean survival time, dose: 2.5 mg/kg/injection, schedule: Q01DX009 (ip), vehicle: Klucel (hydroxypropylcellulose) (HPC)) 107 % of control; (endpoint: mean survival time, dose: 2.5 mg/kg/injection, schedule: Q01DX009 (sc), vehicle: Klucel (hydroxypropylcellulose) (HPC)) 108 % of control; (endpoint: mean survival time, dose: 5.0 mg/kg/injection, schedule: Q01DX009 (ip), vehicle: Klucel (hydroxypropylcellulose) (HPC)) 106 % of control; (endpoint: mean survival time, dose: 5.0 mg/kg/injection, schedule: Q01DX009 (sc), vehicle: Klucel (hydroxypropylcellulose) (HPC)) 112 % of control.
Take `CCCCCCCCCCCCCCCC(=O)OCC1OC(n2ccc(N)nc2=O)C(O)C1O` (stereo not drawn): the T/C was 211 % of control (endpoint: median survival time, dose: 9.38 mg/kg/injection, schedule: Q01DX009 (ip), vehicle: saline); 177 % of control (endpoint: median survival time, dose: 9.38 mg/kg/injection, schedule: Q01DX009 (sc), vehicle: saline); 233 % of control (endpoint: median survival time, dose: 18.75 mg/kg/injection, schedule: Q01DX009 (ip), vehicle: saline); 233 % of control (endpoint: median survival time, dose: 18.75 mg/kg/injection, schedule: Q01DX009 (sc), vehicle: saline); 183 % of control (endpoint: median survival time, dose: 18.75 mg/kg/injection, schedule: Q04DX003 (sc), vehicle: saline); 155 % of control (endpoint: median survival time, dose: 37.5 mg/kg/injection, schedule: Q01DX001 (ip), vehicle: saline). Further, the T/C (endpoint: median survival time, dose: 37.5 mg/kg/injection, schedule: Q01DX001 (sc), vehicle: saline) is 161 % of control; the T/C (endpoint: median survival time, dose: 37.5 mg/kg/injection, schedule: Q01DX009 (sc), vehicle: saline) was 188 % of control; the T/C (endpoint: median survival time, dose: 37.5 mg/kg/injection, schedule: Q04DX003 (ip), vehicle: saline) is 216 % of control; the T/C (endpoint: median survival time, dose: 37.5 mg/kg/injection, schedule: Q04DX003 (sc), vehicle: saline) was 233 % of control; the T/C (endpoint: median survival time, dose: 75.0 mg/kg/injection, schedule: Q01DX001 (ip), vehicle: saline) is 194 % of control; the T/C (endpoint: median survival time, dose: 75.0 mg/kg/injection, schedule: Q01DX001 (sc), vehicle: saline) is 95 % of control and 98 % of control and 233 % of control. Moreover, the T/C is 150 % of control (endpoint: median survival time, dose: 75.0 mg/kg/injection, schedule: Q01DX009 (sc), vehicle: saline); 227 % of control (endpoint: median survival time, dose: 75.0 mg/kg/injection, schedule: Q04DX003 (ip), vehicle: saline); 244 % of control (endpoint: median survival time, dose: 75.0 mg/kg/injection, schedule: Q04DX003 (sc), vehicle: saline); 255 % of control (endpoint: median survival time, dose: 150.0 mg/kg/injection, schedule: Q01DX001 (ip), vehicle: saline); 95 % of control and 98 % of control and 238 % of control (endpoint: median survival time, dose: 150.0 mg/kg/injection, schedule: Q01DX001 (sc), vehicle: saline); 122 % of control (endpoint: median survival time, dose: 150.0 mg/kg/injection, schedule: Q01DX009 (ip), vehicle: saline). The T/C reads like this: (endpoint: median survival time, dose: 150.0 mg/kg/injection, schedule: Q04DX003 (ip), vehicle: saline) 177 % of control; (endpoint: median survival time, dose: 150.0 mg/kg/injection, schedule: Q04DX003 (sc), vehicle: saline) 150 % of control; (endpoint: median survival time, dose: 600.0 mg/kg/injection, schedule: Q01DX001 (ip), vehicle: saline) 116 % of control.
`C1CN1c1nc(N2CC2)nc(N2CC2)n1`: the T/C runs as follows: (endpoint: median survival time, dose: 0.23 mg/kg/injection, schedule: Q01DX Z (sc), vehicle: saline) 100 % of control; (endpoint: median survival time, dose: 0.39 mg/kg/injection, schedule: Q01DX Z (sc), vehicle: saline) 104 % of control and 105 % of control; (endpoint: median survival time, dose: 0.65 mg/kg/injection, schedule: Q01DX Z (sc), vehicle: saline) 112 % of control and 115 % of control; (endpoint: median survival time, dose: 1.08 mg/kg/injection, schedule: Q01DX Z (sc), vehicle: saline) 160 % of control; under setting [1], 108 % of control; (endpoint: median survival time, dose: 5.0 mg/kg/injection, schedule: Q01DX Z (sc), vehicle: saline) 104 % of control and 120 % of control.

The values above are taken from PubChem BioAssay AID250 (DTP/NCI, 2004).
